Reference: patent US20190083436A1, “METHODS OF DIAGNOSING CANCER” (AGENCY FOR SCIENCE, TECHNOLOGY AND RESEARCH, priority 2016, published 2019)

Assays:
mTOR = experiment: Immunofluorescence of mTOR/LAMP2 co-localization in Hep3B cells; type: cell-based; details: treated 2 hours
Description: Arrows highlight the co-localization of mTOR and lysosomal marker LAMP2. […] Student's t-test, *P<0.05, compared to respective controls.

DEN-induced liver tumors = experiment: DEN-injected mice fed BCAA-supplemented diets with Fenofibrate or BT2; type: in vivo; details: 8 months after DEN injection; LFD+BCAA or HFD+BCAA with 0.05% Fenofibrate or 0.02% BT2
Description: Analysis of mice 8 months after DEN injection, fed either a low fat diet (LFD, 10% kcal from fat) or high fat diet (HFD, 45% kcal from fat) with normal or high (+150%) levels of BCAAs. […] Hazard ratios (with 95% confidence intervals) based on BCAA intake, adjusted for age, sex, race, total kcal, usual dietary intake, diet change, physical activity, intentional weight loss, waist circumference, smoking, education, and prior diagnosis of cancer, diabetes and cardiovascular disease, additionally adjusted for % kcal from other macronutrients. […] Substitution analysis comparing change in risk when replacing BCAAs with carbohydrate or fat, with the same adjustments as HR2 except total kcal and % kcal from nonBCAA protein. Data are presented as hazard ratio (solid line) with 95% confidence interval (shaded area). […] Student's t-test, *P<0.05 vs. LFD, § P<0.05 vs HFD. †P<0.05 vs LFD+BCAA. ‡P<0.05 vs HFD+BCAA. […]
All animal studies were approved by the Institutional Animal Care and Use Committee at A*STAR. […] For rat DEN model, DEN was given to 10 week-old rats via drinking water containing 100 mg/L DEN for up to 4 months, and control rat livers from age-matched rats were analyzed. […] Livers were resected, measured by electronic calipers and snap frozen in liquid nitrogen. […] Body weights were measured weekly and prior to sacrifice lean and fat mass were measured by an EchoMRI Body Composition Analyzer. […]

HCC cell lines = experiment: Real-time cell proliferation (xCELLigence) of liver cancer cell lines treated with compounds; type: cell-based
Description: Cell Culture. Cell lines were obtained [Huh7 from Japanese Collection of Research Bioresources; Hep3B, SNU182, SNU387, SNU398, and SNU449 from ATCC; and Morris Hepatoma 3924a from German Cancer Research Center Tumor Collection] and not further verified. Only cell stocks that had been verified mycoplasma-negative within the prior 9 months were used. All cell lines were maintained in RPMI 1640 with 10% FBS and 1% Pen Strep (Gibco) and grown in a 37° C. humidified incubator with 5% CO2. Real-time cell growth measurements were taken on an xCELLigence RTCA SP (Acea) at 15-minute intervals. For compound treatment growth curves, cells were seeded in quadruplicate at 1,250, 2,500 or 5,000 cells per well and normalized 12 hours later (time 0 hours), immediately prior to changing half of the media to add compounds or vehicle. […] For immunoblots, cells were seeded in 10 cm dishes and allowed to grow for at least 24 hours. At approximately 80% confluence the media was changed to include indicated amounts of compound or vehicle (DMSO) and whole cell lysates were harvested 2 hours later. […] Results shown are one of at least three independent experiments.

mTOR pathway = experiment: Immunoblots of mTOR pathway activity after 2 hours of compound treatment; type: cell-based; details: HCC cell lines, 2 hours of treatment
Description: All cell lines were maintained in RPMI 1640 with 10% FBS and 1% Pen Strep (Gibco) and grown in a 37° C. humidified incubator with 5% CO2. […] For immunoblots, cells were seeded in 10 cm dishes and allowed to grow for at least 24 hours. At approximately 80% confluence the media was changed to include indicated amounts of compound or vehicle (DMSO) and whole cell lysates were harvested 2 hours later. […] For immunoblots, cells were seeded in 10 or 15 cm dishes, and were split or received media change every 3-4 days to maintain a doxycycline concentration of 250 μg/mL. After 10 days, cells were harvested as whole cell lysates, or as purified mitochondrial fractions using an isolation kit (Thermo Fisher). Results shown are one of at least three independent experiments. […] For immunoblots, cells were seeded into 10 cm or 15 cm dishes and harvested 5 days later as whole cell lysates or purified mitochondrial fractions, when the cells were approximately 80% confluent.
Antibodies were obtained from Cell Signaling [Cleaved Caspase 3 (9664), Cox IV (4844), p-Histone H2A.X (9718), S6 (2317), p-S6 (4858), S6K (9202), p-S6K (9234)], Santa Cruz [Bckdha (sc-67200), Bckdhb (sc160974), Gapdh (sc-32233)], Bethyl [p-Bckdha (A304-672A)], Sigma [Tubulin (T5168), Acads (HPA022271)], and Abcam [Acadsb (ab99951), Bckdk (ab125389 and ab151297), Ki67 (ab15580)]. […]

Compound: CC(C)OC(=O)C(C)(C)Oc1ccc(C(=O)c2ccc(Cl)cc2)cc1 [Fenofibrate, propan-2-yl 2-[4-(4-chlorobenzoyl)phenoxy]-2-methylpropanoate]
- mTOR subcellular localization (co-localization of mTOR and lysosomal marker LAMP2) (mTOR): no significant co-localization was observed
- tumor promoting effects of BCAA-supplemented diets (number of tumors ≥3 mm, size of largest tumor) (DEN-induced liver tumors): able to reverse the tumor promoting effects

Compound: O=C(O)c1sc2cc(Cl)ccc2c1Cl [BT2, 3,6-dichlorobenzo[b]thiophene-2-carboxylic acid]
- cell proliferation (real-time proliferation curves, divisions per day) (HCC cell lines; panel of HCC cell lines, rates over 48-hour period): potent dose-dependent decrease in cell proliferation
- mTOR subcellular localization (co-localization of mTOR and lysosomal marker LAMP2) (mTOR): no significant co-localization was observed
- mTOR activity (immunoblots) (mTOR pathway): broad loss of mTOR activity
- tumor promoting effects of BCAA-supplemented diets (number of tumors ≥3 mm, size of largest tumor) (DEN-induced liver tumors): able to reverse the tumor promoting effects

Compound: CCC(=O)N1CCN(c2ccc(-n3c(=O)ccc4cnc5ccc(-c6cnc7ccccc7c6)cc5c43)cc2C(F)(F)F)CC1 [Torin 1]
- sensitivity of HCC cell lines to mTOR inhibitors (HCC cell lines; all HCC cell lines examined, proliferation and mTOR pathway immunoblots): at least partially sensitive
